melting point [°C]	Compound
75 to 90	CN(CC(=O)[C@H](Cc1ccccc1)NC(=O)N1CCOCC1)C(=O)N1CCC[C@H]1C(=O)O
269	O=C1Cc2cc(-c3cccc([N+](=O)[O-])c3)ccc2N1
242	O=S(=O)(c1ccccc1)n1c2ccc(Br)cc2c2cc(Cl)cnc21
124 to 125	CC1(C)CC(c2ccccn2)c2cc(Cl)ccc2O1 (stereo unspecified)
150 to 154	Cc1c(C(=O)NC2C3(C)CCC(C3)C2(C)C)c2ccc(Cl)c(Cl)c2n1CCCNS(C)(=O)=O (stereo unspecified)
269 to 271	Cc1ccccc1C(=O)Nc1ccc(C(=O)N2CCCC(NC(=O)Nc3ccccc3)c3ccccc32)cc1 (stereo unspecified)
243 to 244	CCn1cc(C(=O)O)c(=O)cc1-c1ccc(NC)c(C)c1
104 to 105	CCOC(=O)c1cccc(N)c1NCc1ccc(-c2ccccc2C#N)cc1
104 to 106	COC(=O)C(CCN(C(C)C)C(C)C)(CC(=O)N1CCCCC1)c1ccccc1Cl (stereo unspecified)
139 to 140	CCc1ccc(OC(CC)C(=O)OC2CC(O)C=C3C=CC(C)C(CCC4CC(O)CC(=O)O4)C32)cc1 (mixture of isomers)
197 to 198	CSc1ccc(-c2n[nH]c(=O)cc2-c2ccc(F)cc2)cc1
142 to 144	CCOCc1nc2c(N)nc3cc(-c4ccccc4)cnc3c2n1CCCONC(C)C
103 to 104	Brc1ccc2nc(COc3ccc(CCCn4ccnc4)cc3)cn2c1
105 to 108	COC(=O)CCc1c[nH]cn1
60 to 60.5	CCN(CC)CCOc1cccc2c1c1cccc(F)c1n2Cc1ccccc1
194 to 196	COC(=O)c1sc2cncc(Oc3ccc(Cl)cc3)c2c1N
222 to 223	CON=C(C)c1ccc(Nc2nc3ccccc3c3occc23)cc1
155	CS(=O)(=O)c1ccccc1C(=O)C(C#N)C(=O)C1CC1 (stereo unspecified)
212 to 214	CC1CN(c2n[nH]c(-c3ccc(Cl)cc3)c2-c2ccncn2)CCN1C (stereo unspecified)
93.5 to 94.5	NCC(=O)NC(Cc1cccnc1)c1ccccc1 (stereo unspecified)
204 to 206	Nc1ccc([N+](=O)[O-])cc1S(=O)(=O)N1CCOCC1
188	OC1CSC(Oc2ccc(-c3cncnc3)nc2)C(O)C1O (stereo unspecified)
149 to 151	Cc1cc(OCc2ccc(-c3ccc(OC(F)(F)F)cc3)nc2C)ccc1OC(C)(C)C(=O)O
160 to 162	CCOC(=O)C1Oc2cccnc2NC1=O (stereo unspecified)

melting point [°C]	Compound
86 to 87	CCCCCCOc1c(F)ccc(C(N)=O)c1F
108 to 110	O=C1c2ccccc2C(=O)N1C/C=C/CCl
152 to 153	c1cnn(-c2ccnc(-n3cccn3)n2)c1
192 to 194	COc1cccc(-c2nc3ccc(OC(F)(F)F)cc3[nH]2)c1
155 to 156	O=C(O)COc1ccc(C(=O)c2cccc(Cl)c2)c(Cl)c1Cl
208 to 209	CNS(=O)(=O)c1ccc2c(c1)C=C(C(=O)O)C(C(F)(F)F)O2 (stereo unspecified)
135 to 137	CC1(O)CC(=O)OC(CCc2ccc(O)cc2)C1 (stereo unspecified)
176	O=C1CCOc2c1ccc(O)c2Cc1ccccc1
> 310	Cc1ccccc1-n1nc(-c2cccc(C(=O)O)c2)[nH]c1=O
170	Cc1nc2c(OCc3c(Cl)ccc(S(=O)(=O)N4CCC[C@H]4C(=O)NCCCNC(=O)c4ccc(C=NN)cc4)c3Cl)cccn2c1Br
143 to 145	O=S(=O)(c1ccc(O)cc1)c1ccc(Cl)cc1
124 to 125	COc1cccc(S(=O)(=O)N2CCc3cc(OCc4ccccc4)c(OC)cc3C2)c1
96 to 98	CCOC(=O)COc1cc(Cl)c(C(=O)c2ccc([N+](=O)[O-])cc2)c(Cl)c1
61 to 63	CCOCCCOc1ccc2c(c1)C(N(C)S(C)(=O)=O)CC(C)(C)O2 (stereo unspecified)
115 to 116	Cc1ccc(SCC(=O)c2cc(O)c(O)c([N+](=O)[O-])c2)cc1
130	Cc1ccc(Cc2nc3c(nnn3C(C)CCCc3ccccc3)c(=O)[nH]2)cc1 (stereo unspecified)
121 to 122	CC(=O)SCC(Cc1ccccc1)C(=O)Nc1ccccc1C(=O)O (stereo unspecified)
117	CCCCCCCCC#Cc1c(F)ccc(C(=O)O)c1F
211 to 212	O=C(O)c1cc2c(c([N+](=O)[O-])c1)OC(C(Cl)(Cl)Cl)OC2C(Cl)(Cl)Cl (stereo unspecified)
108 to 112	C=CCN1CCc2cc(OC)c(O)cc2C1Cc1ccc(OC)c(OC)c1 (single isomer, unassigned; (+))
157 to 159	CC(C)[C@H](NC(=O)Cc1csc(N(C)C)n1)C(=O)N[C@@H](Cc1ccccc1)[C@@H](O)C[C@H](Cc1ccccc1)NC(=O)OCc1cncs1
146 to 148	O=CN1CCCN2c3ccccc3Cc3ccccc3C2C1 (stereo unspecified)
233 to 236	CCOC(=O)c1cn(-c2nnn[nH]2)c2cc(F)c(F)cc2c1=O
184 to 186	Cc1nnc2ccc(-c3cccc(F)c3)nn12

melting point [°C]	Compound
214 to 215	Nc1cccc(CN/C=C2\C(=O)NC(=O)c3ccc(Br)cc32)c1
210 to 212	Cc1cc(C(=O)Nc2cc(F)ccc2O)c(Br)s1
150 to 152	COc1ccc(COc2ccc(CC(=O)O)cc2Cl)cc1
> 220	Oc1cc2c(cc1O)-c1cc3cc(O)c(O)cc3nc1CC2
111 to 112	Cc1sc(CCc2ccc(CCCC3OC(=O)NC3=O)cc2)nc1-c1ccccc1 (stereo unspecified)
> 290	COc1ccc2[nH]cc(C3=C(c4c[nH]c5ccc(OC)cc45)C(=O)N(C)C3=O)c2c1
205	C=CC(=O)Nc1n[nH]c2cc(Cl)ccc12
140 to 143	CCOC(=O)c1nn(-c2c(Cl)cc(C(F)(F)F)cc2Cl)cc1O
209 to 210	Cc1noc(NC(=O)N2CCN(c3ccnc(-c4cccc(F)c4F)n3)CC2)c1C
123 to 125	CCOC(=O)C1Cc2c(c(Cl)cc3c(-c4ccccc4)noc23)O1 (stereo unspecified)
113 to 114	CCc1noc(-c2cn(-c3cccc(OCc4ccccc4)c3)cn2)n1
284 to 285	Cc1nc2c3c(c(C(=O)N4CCOCC4)cc2n1C)CCC1(Cc2ccccc2C1)N3
194 to 195	COc1ccc(CS(=O)(=O)c2cc3ccccc3oc2=O)cc1
255	CC(C)(C)OC(=O)NCc1ccc(C(=O)Nc2ccc(Nc3cc(-c4cccc5c4oc4ccccc45)ncn3)cc2)c(F)c1
83 to 85	CCCCCCCCCC1CNC(=O)O1 (stereo unspecified)
144 to 146	CCC(CCOC)c1ccc(Cl)c2nc3n(c12)CCCN3c1ccc(Cl)cc1Cl (stereo unspecified)
54 to 55	O=C(CCCCCCCCCC=C(F)F)Nc1ccccc1Cl
155	Cn1c(=O)n(Cc2ccccc2)c(=O)c2cc(C(=O)CCc3ccccc3)ccc21
140 to 141	Cc1cc(NC(=O)C(=O)N2C(C)COCC2C)cc(C)c1S(=O)(=O)C[N+](=O)[O-] (stereo unspecified)
128 to 130	COc1cc(C=C[N+](=O)[O-])c2c(c1OC)CCC2
165 to 166	COc1cc(C)c(Nc2nnc3n2C(c2ccc(F)cc2)CSC3)cc1OC (stereo unspecified)
150	Cc1cc(SCc2ccc(OCc3ccccn3)cc2)ccc1OCC(=O)O
238 to 239	Cc1cc(C(=O)c2ccc(Br)cc2)c(O)cc1Cl
167 to 170	O=C1NCCN1c1cn(-c2cccnc2)nc1Cl

melting point [°C]	Compound
94.5 to 98	CC(NS(=O)(=O)c1ccc(Cl)cc1)P(=O)(OCCCl)OCCCl (stereo unspecified)
220 to 222	Cc1c(NC(=O)c2ccc(-c3ccc(F)cc3)cc2)ccc2cc(CN3CCCC3)cnc12
117 to 118	O=C(O)CC(CC(=O)Nc1cc(OCC=C(Cl)Cl)c(Cl)cc1F)C(F)(F)F (stereo unspecified)
139 to 141	COc1cc(C)cc(C(O)=S)c1OC
106 to 108	CNc1ccc(Cl)cc1C(O)c1ccccc1Cl (stereo unspecified)
184 to 186	O=C(Nc1ccc(O)c(C(=O)O)c1)OCc1ccccc1
126 to 129	CCON=C(C(C)=NOCc1ccccc1C(=NOC)C(=O)NC)c1ccc(Oc2ccc(Cl)cc2)cc1
251 to 253	COc1cc2cc3ncc(C#N)c(Nc4ccc(Oc5ccccc5)c(Cl)c4)c3cc2cc1OCCN1CCOCC1
114 to 115	CC1(C)CCC(Br)(C(Br)c2ccc(Cl)cc2)C(=O)C1 (stereo unspecified)
144 to 147	Nc1ncc2ncn([C@H]3C=C[C@@H](O)C3)c2n1 (racemic)
272 to 273	O=S1(=O)N=C(NC2CC2)Nc2cc(Cl)sc21
264 to 266	N#Cc1cnn(-c2ccc(NN)nn2)c1N
169	O=C(NCCN1CCC(O)(c2ccc(Cl)cc2)CC1)c1ccccc1
55 to 58	CCCCCCCCCCCc1coc(N)n1
96 to 98	ON=C1CCCOc2ccccc21
174	O=C(c1ccc(Cl)cc1)c1c(Cl)nc2n(c1=O)CCS2
200 to 202	CCc1[nH]n(C2CCCC2)c2nc(SC)nc(=O)c1-2
249 to 251	CC1(C)COc2ccc(C(=O)Nc3ccc(C(=O)O)cc3)cc2OC1
90 to 92	CC(=O)NC1CCN(CCCOc2ccc3c4c(c(=O)oc3c2)CCCC4)CC1
81	NS(=O)(=O)c1ccc(-c2c(-c3ccccc3)noc2COCCS(=O)(=O)CCO)cc1
68 to 69	CC(C)(C(=O)c1ccc(S)cc1)N1CCOCC1
84 to 86	Cc1nc(-c2ccccc2)nc(-c2cccc([N+](=O)[O-])c2)c1C(=O)OCCO
170 to 171	Cc1c(O)c(=O)ccn1CC(C)C
109 to 110	O=C(O)CCc1cn(Cc2ccc(OCc3ccccn3)cc2)cc1-c1ccccc1

Compound	melting point [°C]
CCOc1cc(F)cc2c1c(CCN(C)C)cn2CC	77.1 to 78.2
CC(C)CCCOC1CCC2C3C(=O)C=C4CC(O)CCC4(C)C3CCC12C (stereo unspecified)	134
CN1C(=O)C(F)ON=C(c2ccccc2)c2cc(Cl)ccc21 (stereo unspecified)	218 to 220
CCCCCc1cc(OC)c(C2=C[C@H]3CC[C@]2(C(=O)O)C3(C)C)c(OC)c1	84 to 86
CN1Cc2c(C#N)ncn2-c2cccc(Cl)c2C1=O	238 to 240

— a melting point compilation (Tetko et al.; mined from patent text by program, amines drawn as free bases though some values may be those of a salt)
